Reference: patent publication US8536201B2, “Pesticidal arylpyrrolidines” (Bayer Intellectual Property GmbH, priority 2009, dated 2013)

Legend:
Format in all cases: in vivo
Spodoptera litura = experiment: Tobacco cutworm (Spodoptera litura) larvae, sweet potato leaf dip test; conditions: third instar larvae, treated sweet potato leaves, after 7 days
Procedure: Unless not mentioned otherwise, the test solutions were prepared as follows:
Solvent: dimethyl formamide, 3 parts by weight
Emulsifier: polyoxyethylene alkyl phenyl ether, 1 part by weight
To prepare the test solution, 1 part by weight of an active compound is mixed with the above-mentioned amount of solvent containing the above-mentioned amount of emulsifier, and the mixture is diluted with water to the desired concentration.
BIOLOGICAL TEST EXAMPLE 1.1
Tobacco Cutworm (Spodoptera litura) Larvae
Leaves of sweet potato were immersed in the test solution at the appropriate concentration, and the leaves were dried in air. The leaves were then placed in a petri dish having a diameter of 9 cm, and ten Spodoptera litura at third instar larvae were released therein. The petri dishes were placed in a temperature-controlled chamber at 25° C. After 2 days and 4 days more sweet potato leaves were added. After 7 days, the number of dead larvae was counted to calculate the insecticidal activity. An insecticidal activity of 100% means that all larvae were killed, whereas an insecticidal activity of 0% means that no larva was killed. In the current test, the results of two petri dishes for each treatment were averaged.

Tetranychus urticae = experiment: Two-spotted spider mite Tetranychus urticae spray test on kidney bean; conditions: adult mites, after 7 days
Procedure: BIOLOGICAL TEST EXAMPLE 2
Two-Spotted Spider Mite Tetranychus urticae
50 to 100 adult mites of Tetranychus urticae were inoculated to leaves of kidney bean at two-leaf stage planted in a pot of 6 cm in diameter. After one day, test solution at the appropriate concentration was sprayed thereon in a sufficient amount using a spray gun. After the spraying, the plant pot was placed inside a greenhouse, and after 7 days, the acaricidal activity was calculated. An acaricidal activity of 100% means that all mites were killed, an acaricidal activity of 0% means that no mite was killed.

Aulacophora femoralis = experiment: Cucurbit leaf beetle (Aulacophora femoralis) cucumber leaf dip test; conditions: second instar larvae, treated cucumber leaves, after 7 days
Procedure: BIOLOGICAL TEST EXAMPLE 3
Cucurbit Leaf Beetle (Aulacophora femoralis)
Leaves of cucumber were immersed in the test solution at the appropriate concentration, and the leaves were dried in air. The leaves were then put in a plastic cup containing sterilized black soil and five Aulacophora femoralis at second instar larvae were released in the cup. The cups were placed in a temperature-controlled chamber at 25° C. After 7 days, the number of dead larvae was counted, and thus the insecticidal activity was calculated. An insecticidal activity of 100% means that all larvae were killed, whereas an insecticidal activity of 0% means that no larva was killed.

Boophilus microplus = Boophilus microplus (dip); conditions: Rhipicephalus microplus, 168 h, read-out: activity (mortality in %)
Procedure: BIOLOGICAL TEST EXAMPLE 5
Boophilus microplus (Dip)
(§1) Solvent: Dimethyl Sulfoxide
To produce a suitable preparation of active compound, 10 mg of active compound are dissolved in 0.5 ml solvent, and the concentrate is diluted with water to the desired concentration. Eight to ten adult engorged female Boophilus microplus ticks are placed in perforated plastic beakers and immersed in aqueous compound solution for one minute. Ticks are transferred to a filter paper in a plastic tray. Egg deposition of fertile eggs is monitored after. After 7 days mortality in % is determined. 100% means that all the ticks have been killed; 0% means that none of the ticks have been killed.

Ctenocephalides felis = Ctenocephalides felis test (CTECFE), blood feeding; conditions: Ctenocephalides felis, in Bos taurus, 48 h, read-out: activity (mortality in %)
Procedure: BIOLOGICAL TEST EXAMPLE 7
Ctenocephalides felis—Test (CTECFE)
as §1
To produce a suitable preparation of active compound, 10 mg of active compound are dissolved in 0.5 ml solvent, and the concentrate is diluted with cattle blood to the desired concentration. Approximately 20 adult unfed (Ctenocephalides felis) are placed in flea chambers. The blood chamber, sealed with parafilm on the bottom, are filled with cattle blood supplied with compound solution and placed on top of the flea chamber, so that the fleas are able to suck the blood. The blood chamber is heated to 37° C. whereas the flea chamber is kept at room temperature.
After 2 days mortality in % is determined. 100% means that all the fleas have been killed; 0% means that none of the fleas have been killed.

Lucilia cuprina = Lucilia cuprina (48 hrs) larval test; conditions: read-out: activity (larval mortality in %)
Procedure: BIOLOGICAL TEST EXAMPLE 8
Species: Lucilia cuprina 1st Instar Larvae (Age 24 Hrs)
as §1
10 mg active compound are dissolved in 0.5 ml dimethyl sulfoxide. Serial dilutions are made to obtain the desired rates. Approximately 20 Lucilia cuprina 1st instar larvae are transferred into a test tube containing 1 cm^3 of minced horse meat and 0.5 ml aqueous dilution of test compound.
After 2 days larval mortality in % is recorded. 100% efficacy=all larvae are killed, […].

Musca domestica = Musca domestica test; conditions: Musca domestica, 48 h, read-out: activity (mortality in %)
Procedure: BIOLOGICAL TEST EXAMPLE 9
as §1
To produce a suitable preparation of active compound, 10 mg of active compound are dissolved in 0.5 ml solvent, and the concentrate is diluted with water to the desired concentration. Prior to the assay, a piece of kitchen sponge is soaked with a mixture of sugar and compound solution and placed into a container. 10 adults (Musca domestica) are placed into the container and closed with a perforated lid.
After 2 days mortality in % is determined. 100% means that all the flies have been killed; 0% means that none of the flies have been killed.

C[C@H](NC(=O)C1CC1)c1ccc(N2CCC(c3cc(C(F)(F)F)cc(C(F)(F)F)c3)(C(F)(F)F)C2)cc1 (stereo partly drawn) [Compound 11-b, N-[(1S)-1-(4-{3-[3,5-bis(trifluoromethyl)phenyl]-3-(trifluoromethyl)pyrrolidin-1-yl}phenyl)ethyl]cyclopropanecarboxamide]
100%: insecticidal activity (Spodoptera litura; 0.8 ppm) | insecticidal activity (Spodoptera litura; 20 ppm) | insecticidal activity (Tetranychus urticae; 4 ppm) | insecticidal activity (Tetranychus urticae; 20 ppm) | insecticidal activity (Aulacophora femoralis; 4 ppm) | insecticidal activity (Aulacophora femoralis; 20 ppm) | mortality at 100 ppm (Boophilus microplus) | mortality at 100 ppm (Ctenocephalides felis) | mortality at 100 ppm (Lucilia cuprina) | mortality at 100 ppm (Musca domestica)
